BigSolDB 2.1

CC(=O)N1CCC[C@H]1C(=O)O
solubility (mole fraction)
Details	283.15 K	288.15 K	293.15 K	298.15 K	303.15 K	313.15 K	323.15 K
in 1,4-dioxane	–	0.0237	0.0291	–	0.0416	0.0673	0.13
in 2-butanone	0.0113	–	0.0161	–	0.0237	0.0339	0.0553
in acetone	0.0158	–	0.0247	–	0.0348	0.0484	0.0673
in acetonitrile	0.0159	–	0.0335	–	0.0558	0.131	0.255
in dichloromethane	0.0336	0.0448	0.0609	0.0785	0.0974	–	–
in ethanol	0.0754	–	0.111	–	0.156	0.219	0.278
in ethyl acetate	0.00368	–	0.00634	–	0.0096	0.0133	0.0201
in isobutanol	0.0448	–	0.0643	–	0.106	0.146	0.2
in isopropanol	0.0448	–	0.0732	–	0.099	0.143	0.177
in methanol	0.122	–	0.166	–	0.21	0.291	0.406
in methyl acetate	0.00602	–	0.00997	–	0.0147	0.0213	0.0322
in n-butanol	0.0412	–	0.059	–	0.0877	0.133	0.199
in n-pentanol	0.0377	–	0.0532	–	0.075	0.111	0.158
in n-propanol	0.0961	–	0.14	–	0.195	0.267	0.334
in sec-butanol	0.0429	–	0.062	–	0.0915	0.132	0.189
in water	0.0127	–	0.0188	–	0.0269	0.042	0.0738
